Patent US7470706B2, “Cycloalkyl-substituted 7-amino-4-quinolone-3-carboxylic acid derivatives, process for their preparation and their use as medicaments” (Sanofi-Aventis Deutschland GmbH, priority 2004, dated 2008)

Target: T1, human glycogen phosphorylase a (Homo sapiens, UniProt P06737)
T1 sequence (P06737 1-847): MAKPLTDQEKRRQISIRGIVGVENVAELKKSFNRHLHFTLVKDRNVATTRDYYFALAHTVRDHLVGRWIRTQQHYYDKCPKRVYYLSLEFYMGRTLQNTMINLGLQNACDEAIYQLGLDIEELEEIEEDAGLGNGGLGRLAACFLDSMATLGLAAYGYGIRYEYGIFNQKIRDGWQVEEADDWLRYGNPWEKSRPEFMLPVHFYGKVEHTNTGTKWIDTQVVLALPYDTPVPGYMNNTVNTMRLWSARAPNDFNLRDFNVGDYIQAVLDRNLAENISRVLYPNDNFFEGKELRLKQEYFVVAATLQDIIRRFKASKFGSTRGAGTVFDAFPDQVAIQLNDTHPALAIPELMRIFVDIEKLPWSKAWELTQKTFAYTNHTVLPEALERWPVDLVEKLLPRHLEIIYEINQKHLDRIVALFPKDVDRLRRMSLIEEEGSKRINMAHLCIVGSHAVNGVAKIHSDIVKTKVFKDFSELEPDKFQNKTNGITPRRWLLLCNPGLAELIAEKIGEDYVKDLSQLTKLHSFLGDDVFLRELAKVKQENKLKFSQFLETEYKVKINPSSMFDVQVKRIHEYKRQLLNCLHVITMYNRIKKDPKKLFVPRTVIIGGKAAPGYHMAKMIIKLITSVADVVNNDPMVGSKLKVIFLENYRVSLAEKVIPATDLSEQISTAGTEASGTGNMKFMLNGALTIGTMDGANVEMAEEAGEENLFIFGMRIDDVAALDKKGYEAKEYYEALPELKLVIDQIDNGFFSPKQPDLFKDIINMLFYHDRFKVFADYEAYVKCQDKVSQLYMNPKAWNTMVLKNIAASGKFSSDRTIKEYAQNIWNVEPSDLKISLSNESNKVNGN
Assay: Glycogen phosphorylase a activity assay
Type: biochemical
Settings: 10 μM test substance; reverse direction (glycogen synthesis from glucose 1-phosphate), inorganic phosphate liberation
Method: Glycogen Phosphorylase a Activity Assay
The effect of compounds on the activity of the active form of glycogen phosphorylase (GPa) was measured in the reverse direction by following the synthesis of glycogen from glucose 1-phosphate by determining the liberation of inorganic phosphate. All the reactions were carried out as duplicate determinations in microtiter plates with 96 wells (Half Area Plates, Costar No 3696), measuring the change in absorption owing to the formation of the reaction product at the wavelength specified hereinafter in a Multiskan Ascent Elisa Reader (Lab Systems, Finland).
In order to measure the GPa enzymic activity in the reverse direction, the general method of Engers et al. (Engers H D, Shechosky S, Madsen N B, Can J Biochem 1970 July; 48(7):746-754) was used to measure the conversion of glucose 1-phosphate into glycogen and inorganic phosphate, with the following modifications: human glycogen phosphorylase a (for example with 0.76 mg of protein/ml (Aventis Pharma Deutschland GmbH), dissolved in buffer solution E (25 mM β-glycerophosphate, pH 7.0, 1 mM EDTA and 1 mM dithiothreitol) was diluted with buffer T (50 mM Hepes, pH 7.0, 100 mM KCl, 2.5 mM EDTA, 2.5 mM MgCl2.6H2O) and addition of 5 mg/ml glycogen to a concentration of 10 μg of protein/ml. […] After incubation at 45° C. for 60 minutes, the absorption at 820 nm was measured. […]

inhibition at 10 µM	SMILES
35%	C#CC1(Nc2cc3c(=O)c(C(=O)O)cn(CC)c3nc2C)CCCCC1 [Example 3, 1-Ethyl-6-(1-ethynylcyclohexylamino)-7-methyl-4-oxo-1,4-dihydro[1,8]naphthyridine-3-carboxylic acid]
42%	C#CC1(Nc2cc3c(=O)c(C(=O)OCC)cn(CC)c3nc2C)CCCCC1 [Example 2]
